log(1/C) data for 86 compounds are collected here from ChEMBL document CHEMBL3272031, “Inhibition of dihydrofolate reductase. Structure-activity correlations of quinazolines” (J Med Chem, 1976).

The experiment concerns the target Dihydrofolate reductase (Rattus norvegicus) (UniProt Q920D2).

In the case of `O=c1[nH]cnc2ccccc12`, the log(1/C) was 3.62.
The compound `Nc1nc(N)c2c(Cl)c(NC(=O)Cc3ccc4ccccc4c3)ccc2n1` showed a log(1/C) of 8.3.
In turn, `Nc1nc(N)c2cc(S(=O)(=O)c3ccc(Cl)c(Cl)c3)ccc2n1` returned a log(1/C) of 8.05.
Compound `Nc1nc(N)c2cc(NC(=O)Cc3ccc(Cl)c(Cl)c3)ccc2n1` returned a log(1/C) of 7.51.
`Nc1nc(N)c2c(n1)CCCC2` came in with a log(1/C) of 5.13.
For `Nc1nc(N)c2cc([S+]([O-])c3ccc4ccccc4c3)ccc2n1` (stereo unspecified), the log(1/C) was found to be 8.15.
`NCc1ccc2nc(N)nc(N)c2c1`: the log(1/C) was found to be 5.03.
Consider `Nc1nc(N)c2c(Cl)c(Br)ccc2n1`, for which the log(1/C) was 7.
The value for `Nc1nc(N)c2c(S(=O)(=O)c3ccc4ccccc4c3)cccc2n1` was 4.82.
For the compound `Cc1cccc2nc(N)nc(O)c12`, the log(1/C) is 4.8.
As to `Nc1nc(N)c2cc(S(=O)(=O)c3ccc4ccccc4c3)ccc2n1`, the log(1/C) is 8.4.
Compound `Nc1nc(N)c2c(Cl)c(NC(=O)Cc3cccc(Br)c3)ccc2n1` gave a log(1/C) of 8.12.
`Nc1nc2ccccc2c(=O)[nH]1` registered a log(1/C) of 4.31.
As for `Nc1nc(N)c2cc(NC(=O)Cc3ccc4ccccc4c3)ccc2n1`, the figure is 8.3; as for `Nc1nc(N)c2c(Cl)c(NC(=O)Cc3ccc(Cl)cc3)ccc2n1`, 7.92.
For the compound `Nc1nc(N)c2c(Cl)c(NC(=O)COc3ccc(Cl)c(Cl)c3)ccc2n1`, the log(1/C) was 7.64.
As to `Nc1nc(N)c2cc(Cl)ccc2n1`, the log(1/C) was 5.4.
Regarding `Nc1nc(N)c2cc(Sc3ccc(Cl)c(Cl)c3)ccc2n1`, the log(1/C) was 7.96.
In turn, `Nc1ncnc2ccc(Sc3ccc4ccccc4c3)cc12` displayed a log(1/C) of 4.68.
Compound `O=c1[nH]c(=S)c2cc(Sc3ccc4ccccc4c3)ccc2[nH]1` had a log(1/C) of 5.24.
In the case of `Nc1nc(N)c2cc(Sc3cccc(C(F)(F)F)c3)ccc2n1`, the log(1/C) came out at 7.44.
For the compound `Nc1nc(N)c2c([S+]([O-])c3ccc(Cl)c(Cl)c3)cccc2n1` (stereo unspecified), the log(1/C) was determined as 4.26.
Take `CC(=O)Nc1nc(O)c2cc(S(=O)(=O)c3ccc4ccccc4c3)ccc2n1`: the log(1/C) worked out at 6.11.
`Nc1nc(N)c2cc(CNC(=O)c3ccc(Cl)c(Cl)c3)ccc2n1`: the log(1/C) was 7.
The value for `Nc1nc(N)c2c(Cl)c(NC(=O)COc3ccc4ccccc4c3)ccc2n1` was 7.85; that for `Nc1nc(N)c2c(CCc3ccc4ccccc4c3)cccc2n1` was 7.7.
As for `Nc1nc(O)c2cc([S+]([O-])c3ccc4ccccc4c3)ccc2n1` (stereo unspecified), the log(1/C) was determined as 7.38.
For `CC(C(=O)Nc1ccc2nc(N)nc(N)c2c1Cl)c1ccccc1` (stereo unspecified), the log(1/C) amounted to 7.77.
Compound `Nc1nc(O)c2c(Cl)cccc2n1` yielded a log(1/C) of 4.66.
With `Cc1ccc2nc(N)nc(N)c2c1`, the log(1/C) came to 5.66.
In the case of `Nc1nc(O)c2c(S(=O)(=O)c3ccc4ccccc4c3)cccc2n1`, the log(1/C) came to 4.85.
The value for `Cc1c(NC(=O)Cc2ccc(Br)cc2)ccc2nc(N)nc(N)c12` was 7.49; that for `Nc1nc(N)c2c(Cl)c(NC(=O)Cc3ccc(Cl)c(Cl)c3)ccc2n1` was 7.62; that for `Nc1nc(N)c2cc(NC(=O)Cc3cccc(C(F)(F)F)c3)ccc2n1` was 7.02.
Take `Nc1ncnc2ccc(S(=O)(=O)c3ccc4ccccc4c3)cc12`: the log(1/C) worked out at 5.47.
The compound `CC(=O)Nc1nc(O)c2ccccc2n1` came in with a log(1/C) of 4.28.
As to `Cc1c(NC(=O)C(Sc2ccc3ccccc3c2)C(C)C)ccc2nc(N)nc(N)c12` (stereo unspecified), the log(1/C) amounted to 7.68.
Compound `Nc1nc(N)c2c(Cl)cccc2n1` came in with a log(1/C) of 6.25.
Consider `Nc1nc(N)c2c(Sc3ccc4ccccc4c3)cccc2n1`, for which the log(1/C) was 6.92.
With `Cc1c(NC(=O)CSc2ccc3ccccc3c2)ccc2nc(N)nc(N)c12`, the log(1/C) is 8.27.
Take `Nc1nc(N)c2c(Cl)c(N)ccc2n1`: the log(1/C) stood at 6.18.
In the case of `c1ccc2ncncc2c1`, the log(1/C) turned out to be 2.26.
With `Nc1nc(O)c2c(n1)CCCC2`, the log(1/C) was determined as 3.96.
As for `Nc1nc(N)c2c(Sc3ccc(Cl)c(Cl)c3)cccc2n1`, the log(1/C) is 6.8.
As for `Nc1nc(N)c2c(/C=C/c3ccc4ccccc4c3)cccc2n1`, the figure is 5.28; as for `CC1CCc2nc(N)nc(O)c2C1` (stereo unspecified), 4.26.
As for `Cc1cccc2nc(N)nc(N)c12`, the figure is 6.09; as for `Cc1c(NC(=O)CCc2ccc(Cl)cc2)ccc2nc(N)nc(N)c12`, 7.48.
`Cc1c(NC(=O)COc2ccc3ccccc3c2)ccc2nc(N)nc(N)c12` displayed a log(1/C) of 7.82.
With `Nc1nc(S)nc2ccccc12`, the log(1/C) was 3.72.
In turn, `Nc1ccc2nc(N)nc(N)c2c1` gave a log(1/C) of 4.57.
As for `Nc1nc(O)c2cc(S(=O)(=O)c3ccc(Cl)c(Cl)c3)ccc2n1`, the figure is 7.12.
As for `Nc1nc(N)c2cc(NC(=O)Cc3ccc(Cl)cc3)ccc2n1`, the figure is 7.64; as for `Nc1nc(S)c2ccccc2n1`, 4.37; as for `Nc1nc(N)c2c([S+]([O-])c3ccc4ccccc4c3)cccc2n1` (stereo unspecified), 4.35.
For the compound `Nc1nc(N)c2cc(NC(=O)CCc3ccc(Cl)cc3)ccc2n1`, the log(1/C) came out at 7.33.
Take `Nc1nc(N)c2cc(NCc3ccc(Cl)c(Cl)c3)ccc2n1`: the log(1/C) stood at 7.74.
As for `Nc1nc(S)nc2ccc(Sc3ccc4ccccc4c3)cc12`, the figure is 5.52; as for `Nc1nc(O)c2cc(Sc3ccc4ccccc4c3)ccc2n1`, 7.35; as for `Nc1nc(O)nc2ccc(Sc3ccc4ccccc4c3)cc12`, 5.77.
`Nc1nc(O)c2ccc(C(F)(F)F)cc2n1` showed a log(1/C) of 4.35.
As for `O=c1[nH]c(=O)c2cc(Sc3ccc4ccccc4c3)ccc2[nH]1`, the figure is 5.07.
`Nc1nc(N)c2c(CSc3ccc(Cl)cc3)cccc2n1` came in with a log(1/C) of 7.7.
As to `Nc1nc(N)c2c(Cl)c(NC(=O)CCc3ccc(Cl)cc3)ccc2n1`, the log(1/C) is 7.44.
The value for `Nc1ncnc2ccc([S+]([O-])c3ccc4ccccc4c3)cc12` (stereo unspecified) was 4.82.
On to `Nc1nc(S)c2cc(Sc3ccc4ccccc4c3)ccc2n1`, for which the log(1/C) was 6.64.
`Nc1nc(N)c2cc(C=O)ccc2n1` displayed a log(1/C) of 5.
As for `Nc1nc(N)c2c(/C=C\c3ccc4ccccc4c3)cccc2n1`, the figure is 6.52; as for `Nc1nc(O)c2cc(S(=O)(=O)c3ccc4ccccc4c3)ccc2n1`, 7.96; as for `Cc1c(NC(=O)Cc2cccc(C(F)(F)F)c2)ccc2nc(N)nc(N)c12`, 7.23.
`Nc1nc(N)c2c(Cl)c(NC(=O)Cc3cccc(C(F)(F)F)c3)ccc2n1` registered a log(1/C) of 7.64.
Turning to `Cc1c(NC(=O)Cc2ccc3ccccc3c2)ccc2nc(N)nc(N)c12`, the log(1/C) was determined as 8.38.
Regarding `Nc1ncnc2ccccc12`, the log(1/C) turned out to be 3.09.
`Cc1ccc2nc(N)nc(O)c2c1` came in with a log(1/C) of 4.44.
As for `Nc1nc(O)nc2ccccc12`, the log(1/C) turned out to be 4.02.
Compound `Nc1nc(N)c2cc(CNC(=O)c3ccc4ccccc4c3)ccc2n1` returned a log(1/C) of 7.
For the compound `Cc1c(NC(=O)Cc2ccc(Cl)c(Cl)c2)ccc2nc(N)nc(N)c12`, the log(1/C) was 7.77.
Consider `Nc1nc(N)c2cc(Sc3ccc4ccccc4c3)ccc2n1`, for which the log(1/C) was found to be 8.15.
`Oc1nc(S)nc2ccc(Sc3ccc4ccccc4c3)cc12` gave a log(1/C) of 5.
As for `Nc1nc(N)c2cc(CNC(=O)c3cccc(C(F)(F)F)c3)ccc2n1`, the figure is 6.59; as for `Nc1nc(N)c2c(S(=O)(=O)c3ccc(Cl)c(Cl)c3)cccc2n1`, 4.24; as for `Nc1nc(O)c2c(Sc3ccc4ccccc4c3)cccc2n1`, 6.15.
In turn, `Nc1nc(O)c2cc(Sc3ccc(Cl)c(Cl)c3)ccc2n1` gave a log(1/C) of 6.92.
As to `Cc1c(NC(=O)Cc2cccc(Br)c2)ccc2nc(N)nc(N)c12`, the log(1/C) stood at 7.47.
As for `Sc1nc(S)c2cc(Sc3ccc4ccccc4c3)ccc2n1`, the figure is 5.05.
`Nc1nc(S)c2cc(S(=O)(=O)c3ccc4ccccc4c3)ccc2n1`: the log(1/C) was found to be 7.6.
